According to PMC10165273, “Itch receptor MRGPRX4 interacts with the receptor activity–modifying proteins” (The Journal of Biological Chemistry, 2023):
Read-outs that look alike come from different tables or passages of the source.

Molecular target: T1, MRGPRX4 (Homo sapiens, UniProt Q96LA9)
T1 construct: expressed in transfected cells; host or cells: HEK293T
Test: IP1 accumulation HTRF assay, MRGPRX4
Assay type: cell-based
Conditions: 2 h; for activation at 80 µM: log [agonist] (M) -4.09691; for activation at 16 µM: log [agonist] (M) -4.79588; for activation at 3.2 µM: log [agonist] (M) -5.49485; for activation at 0.64 µM: log [agonist] (M) -6.19382; for activation at 0.128 µM: log [agonist] (M) -6.89279; for activation at 0.0256 µM: log [agonist] (M) -7.59176
Procedure: HEK293T cells were transfected with 1 pg/cell of MRGPRX4 DNA, and the amount of DNA was kept constant at 2 pg/cell with pcDNA3.1(+) empty vector, unless otherwise specified. Twenty four hours after transfection, IP1 assay was performed as previously described ([51]). When applicable, cells were treated with 1 μM YM254890 (YM) or different concentrations of U73122 for 1 h prior to addition of agonist or buffer. After incubation for 2 h, HTRF reagents and IP1 calibration standards were added and incubated for 2 h in the dark at room temperature. Time-resolved fluorescence signals were read on the BioTek Synergy NEO-TRF Hybrid multi-mode reader (BioTek Instruments). All data were carried out in three independent experiments with three technical replicate each.
For characterization of the Tet-On Nluc-HT7-MRGPRX4-GFP10-1D4 construct, HEK293T cells were transfected as previously described with some modifications. Dox dose-response of NLuc-HT7-MRGPRX4-GFP10-1D4 DNA titration was assayed by transfecting HEK293T cells with either 1 or 2 pg/cell of NLuc-HT7-MRGPRX4-GFP10-1D4 construct. Receptor expression was induced 4 h after transfection with addition of different concentrations of dox for 20 h. For the RAMP DNA titration assay, cells were cotransfected with a constant amount of 1 pg/cell of NLuc-HT7-MRGPRX4-GFP10-1D4 DNA and 1, 0.75, 0.5, or 0 pg/cell of each HA-RAMP-OLLAS with the homogenous transfection method. Four hours after transfection, receptor expression was induced with addition of 1000 ng/ml dox. Twenty hours after induction, IP1 assay was performed.
Data reduction, standard calibration, and transformation of HTRF data were performed as previously described ([51]). Normalized IP1 values were calculated relative to the unstimulated mock-transfected cells (set to 0%) and fully stimulated MRGPRX4 (alone if applicable) (set to 100%).

[1] = SP-FLAG-Nluc-HT7-MRGX4_Tet-GFP10-1D4, read-out: normalized IP1 accumulation
[2] = SP-FLAG-Nluc-HT7-MRGX4_Tet-GFP10-1D4 no dox, read-out: normalized IP1 accumulation

T1 sequence (Q96LA9 whole entry): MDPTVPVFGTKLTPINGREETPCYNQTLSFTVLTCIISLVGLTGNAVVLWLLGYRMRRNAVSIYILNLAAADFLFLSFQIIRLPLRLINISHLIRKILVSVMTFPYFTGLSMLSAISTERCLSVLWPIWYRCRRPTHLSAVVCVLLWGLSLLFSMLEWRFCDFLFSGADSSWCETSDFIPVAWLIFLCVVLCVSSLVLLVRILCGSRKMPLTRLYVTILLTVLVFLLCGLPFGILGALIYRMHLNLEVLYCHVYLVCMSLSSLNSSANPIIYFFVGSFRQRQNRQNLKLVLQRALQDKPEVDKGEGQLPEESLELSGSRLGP

SMILES: C[C@H](CCC(=O)O)[C@H]1CC[C@H]2[C@@H]3CC[C@@H]4C[C@H](O)CC[C@]4(C)[C@H]3C[C@H](O)[C@]12C [DCA, deoxycholic acid]
- activation at 100 µM (HA-MRGX4-1D4, log [agonist] (M) -4, read-out: normalized IP1 accumulation): 53.9%
- activation at 20 µM (HA-MRGX4-1D4, log [agonist] (M) -4.69897, read-out: normalized IP1 accumulation): 34.3%
- activation at 4 µM (HA-MRGX4-1D4, log [agonist] (M) -5.39794, read-out: normalized IP1 accumulation): 19.4%
- activation at 0.8 µM (HA-MRGX4-1D4, log [agonist] (M) -6.09691, read-out: normalized IP1 accumulation): 12.4%
- activation at […] (HA-MRGX4-1D4, log [agonist] (M) -6.79588, read-out: normalized IP1 accumulation): 11.1%
- activation at 0.032 µM (HA-MRGX4-1D4, log [agonist] (M) -7.49485, read-out: normalized IP1 accumulation): 11.4%
- activation at 100 µM (MRGPRX4: 0.25pg/cell, log [DCA] (M) -4, Fig S1c, read-out: IP1 accumulation): 41.7%
- activation at 20 µM (MRGPRX4: 0.25pg/cell, log [DCA] (M) -4.69897, Fig S1c, read-out: IP1 accumulation): 28.7%
- activation at 4 µM (MRGPRX4: 0.25pg/cell, log [DCA] (M) -5.39794, Fig S1c, read-out: IP1 accumulation): 10.1%
- activation at 100 µM (MRGPRX4: 0.5pg/cell, log [DCA] (M) -4, Fig S1c, read-out: IP1 accumulation): 53.6%
- activation at 20 µM (MRGPRX4: 0.5pg/cell, log [DCA] (M) -4.69897, Fig S1c, read-out: IP1 accumulation): 33.8%
- activation at 4 µM (MRGPRX4: 0.5pg/cell, log [DCA] (M) -5.39794, Fig S1c, read-out: IP1 accumulation): 14.2%
- activation at 0.8 µM (MRGPRX4: 0.5pg/cell, log [DCA] (M) -6.09691, Fig S1c, read-out: IP1 accumulation): 7.76%
- activation at […] (MRGPRX4: 0.5pg/cell, log [DCA] (M) -6.79588, Fig S1c, read-out: IP1 accumulation): 7.83%
- activation at 0.032 µM (MRGPRX4: 0.5pg/cell, log [DCA] (M) -7.49485, Fig S1c, read-out: IP1 accumulation): 6.46%
- activation at 100 µM (MRGPRX4: 1pg/cell, log [DCA] (M) -4, Fig S1c, read-out: IP1 accumulation): 62.8%
- activation at 20 µM (MRGPRX4: 1pg/cell, log [DCA] (M) -4.69897, Fig S1c, read-out: IP1 accumulation): 42.9%
- activation at 4 µM (MRGPRX4: 1pg/cell, log [DCA] (M) -5.39794, Fig S1c, read-out: IP1 accumulation): 19.8%
- activation at 0.8 µM (MRGPRX4: 1pg/cell, log [DCA] (M) -6.09691, Fig S1c, read-out: IP1 accumulation): 13.1%
- activation at […] (MRGPRX4: 1pg/cell, log [DCA] (M) -6.79588, Fig S1c, read-out: IP1 accumulation): 10.7%
- activation at 0.032 µM (MRGPRX4: 1pg/cell, log [DCA] (M) -7.49485, Fig S1c, read-out: IP1 accumulation): 8.32%
- activation at 100 µM (MRGPRX4: 2pg/cell, log [DCA] (M) -4, Fig S1c, read-out: IP1 accumulation): 79.9%
- activation at 20 µM (MRGPRX4: 2pg/cell, log [DCA] (M) -4.69897, Fig S1c, read-out: IP1 accumulation): 51.7%
- activation at 4 µM (MRGPRX4: 2pg/cell, log [DCA] (M) -5.39794, Fig S1c, read-out: IP1 accumulation): 26.6%
- activation at 0.8 µM (MRGPRX4: 2pg/cell, log [DCA] (M) -6.09691, Fig S1c, read-out: IP1 accumulation): 15.7%
- activation at […] (MRGPRX4: 2pg/cell, log [DCA] (M) -6.79588, Fig S1c, read-out: IP1 accumulation): 15.1%
- activation at 0.032 µM (MRGPRX4: 2pg/cell, log [DCA] (M) -7.49485, Fig S1c, read-out: IP1 accumulation): 14.6%
- activation at 100 µM (MRGPRX4: […], log [DCA] (M) -4, Fig S1c, read-out: IP1 accumulation): 38.8%
- activation at 20 µM (MRGPRX4: […], log [DCA] (M) -4.69897, Fig S1c, read-out: IP1 accumulation): 21.2%
- activation at 4 µM (MRGPRX4: […], log [DCA] (M) -5.39794, Fig S1c, read-out: IP1 accumulation): 7.81%
- activation at 0.8 µM (MRGPRX4: […], log [DCA] (M) -6.09691, Fig S1c, read-out: IP1 accumulation): 3.51%
- activation at 0.032 µM (MRGPRX4: […], log [DCA] (M) -7.49485, Fig S1c, read-out: IP1 accumulation): 3.48%
- activation at 10 µM (MRGPRX4, DCA 10uM, Fig S1d): 28.4%
- activation at 100 µM (MRGPRX4, DCA 100uM, Fig S1d, read-out: IP1 accumulation): 60.7%
- activation at 100 µM (MRGPRX4 alone, log [DCA] (M) -4, Fig S3d-f, read-out: IP1 accumulation): 100%
- activation at 20 µM (MRGPRX4 alone, log [DCA] (M) -4.69897, Fig S3d-f, read-out: IP1 accumulation): 66.8%
- activation at 4 µM (MRGPRX4 alone, log [DCA] (M) -5.39794, Fig S3d-f, read-out: IP1 accumulation): 36.1%
- activation at 0.8 µM (MRGPRX4 alone, log [DCA] (M) -6.09691, Fig S3d-f, read-out: IP1 accumulation): 26.3%
- activation at […] (MRGPRX4 alone, log [DCA] (M) -6.79588, Fig S3d-f, read-out: IP1 accumulation): 23.7%
- activation at 0.032 µM (MRGPRX4 alone, log [DCA] (M) -7.49485, Fig S3d-f, read-out: IP1 accumulation): 21.4%
- activation at 30 µM (MRGX4 + DCA, U73122 30uM, Fig S1e): 8.48%
- activation at 30 µM (MRGX4 + DCA, buffer, Fig S1e): 39.2%
- activation at 100 µM (MRGX4 + DCA, 100uM, U73122 30uM, Fig S1e, read-out: IP1 accumulation): 16.7%
- activation at 100 µM (MRGX4 + DCA, 100uM, buffer, Fig S1e, read-out: IP1 accumulation): 56.2%
- activation at 80 µM [1]: 38.3%
- activation at 16 µM [1]: 22.2%
- activation at 3.2 µM [1]: 13%
- activation at 0.64 µM [1]: 10.2%
- activation at 0.128 µM [1]: 9.26%
- activation at 0.0256 µM [1]: 9.64%
- activation at 80 µM [2]: 9.13%
- activation at 16 µM [2]: 7.51%
- activation at 3.2 µM [2]: 9.25%
- activation at 0.64 µM [2]: 7.7%
- activation at 0.128 µM [2]: 7.77%
- activation at 0.0256 µM [2]: 7.55%
- activation at 100 µM (SP-Flag-MRGX4-1D4, log [agonist] (M) -4, read-out: normalized IP1 accumulation): 65.9%
- activation at 20 µM (SP-Flag-MRGX4-1D4, log [agonist] (M) -4.69897, read-out: normalized IP1 accumulation): 34.9%
- activation at 0.8 µM (SP-Flag-MRGX4-1D4, log [agonist] (M) -6.09691, read-out: normalized IP1 accumulation): 9.9%
- activation at […] (SP-Flag-MRGX4-1D4, log [agonist] (M) -6.79588, read-out: normalized IP1 accumulation): 8.52%
- activation at 0.032 µM (SP-Flag-MRGX4-1D4, log [agonist] (M) -7.49485, read-out: normalized IP1 accumulation): 6.84%
- activation at 100 µM (SP-Flag-MRGX4-GFP10-1D4, log [agonist] (M) -4, read-out: normalized IP1 accumulation): 66.1%
- activation at 20 µM (SP-Flag-MRGX4-GFP10-1D4, log [agonist] (M) -4.69897, read-out: normalized IP1 accumulation): 33.2%
- activation at 4 µM (SP-Flag-MRGX4-GFP10-1D4, log [agonist] (M) -5.39794, read-out: normalized IP1 accumulation): 15.5%
- activation at 0.8 µM (SP-Flag-MRGX4-GFP10-1D4, log [agonist] (M) -6.09691, read-out: normalized IP1 accumulation): 8.34%
- activation at […] (SP-Flag-MRGX4-GFP10-1D4, log [agonist] (M) -6.79588, read-out: normalized IP1 accumulation): 7.34%
- activation at 0.032 µM (SP-Flag-MRGX4-GFP10-1D4, log [agonist] (M) -7.49485, read-out: normalized IP1 accumulation): 7.17%
- activation at 100 µM (log [agonist] (M) -4, MRGX4-transfected, individual replicates, read-out: IP1 accumulation, dose-response (Figure 1a)): 67.6%
- activation at 11.111 µM (log [agonist] (M) -4.95424, MRGX4-transfected, individual replicates, read-out: IP1 accumulation, dose-response (Figure 1a)): 33.9%
- activation at 1.2346 µM (log [agonist] (M) -5.90849, MRGX4-transfected, individual replicates, read-out: IP1 accumulation, dose-response (Figure 1a)): 14.9%
- activation at 0.13717 µM (log [agonist] (M) -6.86273, MRGX4-transfected, individual replicates, read-out: IP1 accumulation, dose-response (Figure 1a)): 10.6%
